Experimental data published in patent US20250034139A1, “AMINE COMPOUNDS HAVING ANTI-INFLAMMATORY, ANTIFUNGAL, ANTIPARASITIC, AND ANTICANCER ACTIVITY” (PHARMA CINQ, LLC, priority 2013, published 2025).
Marks after values point to notes of the source that are not given here.

What was measured:
[1] = tested on: Cryptococcus neoformans (serotype D); experiment: Example K: Cryptococcus neoformans (serotype D) growth inhibition; assay type: cell-based
S. cerevisiae = experiment: Example I: Saccharomyces cerevisiae growth inhibition (OD 600 nm); assay type: cell-based; conditions: tested 4 to 50 μM
[2] = tested on: Vit-D3 activated THP-1 cells; experiment: Example B: Acridine Orange (A.O.) uptake, lysosomal acidification and integrity; assay type: cell-based, Human; conditions: 5 hours
Protocol: In this experiment, cell viability was monitored and uptake and accumulation of acridine orange, a lysosomotropic fluorescent dye, was used to assess lysosomal acidification and integrity. JC-1 dye was used to measure effects of test compounds on mitochondrial membrane potential (MMP); reduction of MMP is a feature of apoptotic cell death. • 1. […] The tubes were washed twice in DPBS, resuspended in 500 μl DPBS and acquired on the FACSCalibur.

[3] = tested on: 4T1 mouse mammary breast cancer cells; experiment: Example O: syngeneic 4T1 breast cancer growth in Balb/C mice; assay type: in vivo; conditions: for Final Tumor Volume / Δ BW % / Final Body Weight / Initial Body Weight: 4T1 in female Balb/C mice; for Final Tumor Volume: 120 μmol/kg/day oral gavage, day 2 to day 30; for Δ BW % / Final Body Weight / Initial Body Weight: 120 μmol/kg/day oral; for Δ BW %: final vs initial body weight; for Final Body Weight: in g (unit assumed); for Initial Body Weight: initial (baseline)
Protocol: Cancer models in mice generally either involve syngeneic murine tumors in immunocompetent mice or xenografts of human tumors in immunocompromised mice. […] Mice received test compounds by oral gavage in 1% hydroxypropylmethylcellulose from day 2 until day 30. Tumor growth was assessed by caliper measurements twice per week and tumor weight after necropsy, and body weight was also monitored. Treatment groups were: • 1. […] HPMC) • 2. CI (120 μmol/kg/day) • 3. BA (120 μmol/kg/day) • 4. CP (120 μmol/kg/day) • 5. CQ (120 μmol/kg/day) • 6. AA (120 μmol/kg/day) • 7. AC (120 μmol/kg/day)

[4] = tested on: PC3 human prostate cancer cells; experiment: Example S: in vitro anticancer screen, PC-3 cells, Wst1; assay type: cell-based; conditions: Homo sapiens, PC-3, approximately 20 hours, Wst1, read-out: PC-3, percent of cancer cell survival relative to vehicle treated cells
Method in brief: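 Values give percent survival relative to vehicle, read by Wst1 absorbance (450/630 nm) after 2 h dye incubation, in triplicate. Cells were seeded at 2×10^4/well and treated about 20 h with compound at 0.4, 0.5 or 2.5 μM, depending on compound.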

[5] = tested on: PC-3 prostate cancer cells; experiment: Example T: sensitisation of PC-3 cells to doxorubicin, oxaliplatin, paclitaxel or vincristine, Wst1; assay type: cell-based, human; conditions: PC-3 cells, 72 hours; for viability at 2.5 µM: compound 2.5 μM alone; for Doxorubicin 3.5 μM: percent cell survival / Oxaliplatin 100 μM: percent cell survival / Paclitaxel 50 μM: percent cell survival / Vincristine 100 nM: percent cell survival: chemotherapy agent alone normalized to 100%
[6] = tested on: HCT-116 colon adenocarcinoma cells; experiment: Example Q: HCT-116 liver metastases of human colorectal cancer in nude mice; assay type: in vivo; conditions: 240 μmol/kg/day oral, 28 days
From the text: A major cause of morbidity and mortality in patients with colorectal cancer is metastasis of the tumor into the liver; colorectal cancer can often be successfully resected from the primary site, but metastases to the liver are much less accessible to surgical treatment. A mouse model of colorectal cancer metastasis to the liver has been established, using HCT-116 colon adenocarcinoma cells injected into the spleen of athymic (nude) mice. The HCT-116 cancer cells spontaneously spread from the spleen into the liver via the circulation, and they form tumors in the liver (Ishizu, K., Sunose, N., Yamazaki, K., Tsuruo, T., Sadahiro, S., Makuuchi, H., and Yamori, T. Development and Characterization of a Model of Liver Metastasis Using Human Colon Cancer HCT-116. Biol. Pharm. Bull. 2007, 30(9):1779-1783).
Mice (female Hsd:athymic nude-Foxn1^nu) were anesthetized with xylazine/ketamine intraperitoneal injection, followed by incision approximately 10 mm on the left subcostal region (area disinfected with ethanol) to expose the peritoneum. The peritoneum was opened for about 8 mm near the spleen, and 2.5×10^6 cells in 50 μL PBS were injected into the spleen using a 30G needle. The spleen was repositioned, and the surgical area was closed using sutures and clips.
The day after receiving cells, mice were randomized into groups of five based upon body weight to provide groups with approximately equivalent mean body weight. Mice received a single, daily oral dose of test article or vehicle (1% hydroxypropylmethylcellulose) beginning 48 hours following cell injection into the spleen.
At study termination 28 days after HCT-116 cell injection, body weights were recorded, and spleens and livers were removed, weighed and fixed in 10% formalin. Livers were sectioned and stained; the relative areas of normal and tumor tissue were quantified in histology sections with quantitative planimetry software.

[7] = tested on: 4T1 murine breast cancer cells; experiment: Example S: in vitro anticancer screen, 4T1 cells, Wst1; assay type: cell-based, mouse; conditions: Mus musculus, 4T1, 18 h, 18 hr, Wst1; for viability at 1 µM: read-out: 4T1 1 μM, percent of cancer cell survival relative to vehicle treated cells; for viability at 5 µM: read-out: 4T1 5 μM, percent of cancer cell survival relative to vehicle treated cells
Method in brief: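 Read-out is Wst1 absorbance (450 nm, reference 630 nm) after roughly 2 hr dye incubation, giving percent cell survival versus vehicle. Before that, compounds at 1 μM or 5 μM were applied for 18 hr to 4T1 cells plated at 1×10^4 per well.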

THP-1 cells = experiment: Example D: LPS-triggered THP-1 cell death assay, acute/5-hour and chronic/48-hour; assay type: cell-based, Human; conditions: 10 ng/ml LPS, 0.1 μM test compound, 48 hours
Protocol: Compounds of the invention were tested at 0.1 μM versus AC in the LPS-triggered THP-1 cell death assay. Both acute/5-hour and chronic/48-hour phases of cell death were assessed. Compounds were screened in batches with DMSO as the negative control and AC as the high activity control.

[8] = tested on: EAE induced by PLP139-151; experiment: Example G: Experimental Autoimmune Encephalitis (EAE) mouse model of multiple sclerosis; assay type: in vivo; conditions: for EAE Score on Day 46: 60 μmol/kg by oral gavage from Day 14, score 0-5; for EAE Score on Day 14 (Before Treatment): baseline, score 0-5
[9] = Homo sapiens, Wst1, vehicle = 100, read-out: No Chemo: percent cell survival
[10] = compound 2.5 μM + doxorubicin 3.5 μM
[11] = compound 2.5 μM + oxaliplatin 100 μM
[12] = compound 2.5 μM + paclitaxel 50 μM
[13] = compound 2.5 μM + vincristine 100 nM
[14] = HCT-116 liver metastases, nude mice

Compound	Final Tumor Volume [3] [mm^3]	Δ BW % [3] [%]	Final Body Weight [3]	Initial Body Weight [3] [g]	viability at 2.5 µM [4] [%]	viability at 2.5 µM [5, 9] [%]	Doxorubicin 3.5 μM: percent cell survival [5, 10] [%]	Oxaliplatin 100 μM: percent cell survival [5, 11] [%]	Paclitaxel 50 μM: percent cell survival [5, 12] [%]	Vincristine 100 nM: percent cell survival [5, 13] [%]	viability at 1 µM [7] [%]	viability at 5 µM [7] [%]	Viable cell percent change, Chronic/48-hour, Mean (THP-1 cells) [%]	EAE Score on Day 46 [8]	EAE Score on Day 14 (Before Treatment) [8]	further results
CCN(CC)CCCC(C)Nc1ccnc2cc(Cl)ccc12 (stereo not drawn) [Chloroquine, Chloroquine diphosphate, reference compound]																IC50 ([1]; Cryptococcus deneoformans): > 100 µM; growth inhibition of Cryptococcus neoformans (maximum) ([1]; chloroquine at a concentration of 100 micromolar): less than 50%; inhibition at 100 µM ([1]; read-out: growth inhibition of Cryptococcus neoformans (maximum), chloroquine at a concentration of 100 micromolar): 40%; inactive compound (inhibition of yeast growth, in words) (S. cerevisiae): did not show any inhibition of yeast growth up to 50 uM; A.O. FL-3 fluorescence (MFI) percent change from DMSO no LPS, Mean ± SE ([2]; 50.0 μM C.Q., 1 ng/ml LPS): −72.28 ± 0.78%; A.O. FL-3 fluorescence (MFI) percent change from DMSO no LPS, Mean ± SE ([2]; 100.0 μM C.Q., 1 ng/ml LPS): −88.28 ± 1.60%; A.O. FL-3 fluorescence (MFI) percent change from DMSO no LPS, Mean ± SE ([2]; 100.0 μM C.Q., No LPS): −91.25 ± 0.60%
CCCCCCOc1ccccc1OCCCNc1ccnc2ccccc12 [CQ, N-{3-[2-(Hexyloxy)phenoxy]propyl}quinolin-4-amine]	140 ± 60	−2.0	24.4 ± 0.9	24.9 ± 0.6	95.8	95.8	86.5	93.8	34.8	47.1	71.9	57.9				tumor growth versus vehicle-treated mice, in words ([3]; daily oral administration, 120 μM/kg/day as printed): most active of the compounds tested in this experiment; excess of the Vehicle group's liver weight/body weight ratio over the treated group [6]: 12%; area of liver invaded by metastatic cancer cells, in words ([6]; histology planimetry): markedly reduced the area of liver invaded by metastatic cancer cells; Final Body Weight Grams [6, 14]: 26.2 ± 0.9 NS Grams; Liver Weight % of Body Weight [6, 14]: 5.3 ± 0.1%; Tumor Area % of Vehicle Group [6, 14]: 0.15% *; Tumor Area % of Total Liver ([6]; HCT-116 liver metastases, nude mice, histology planimetry): 0.02 ± 0.01%
CCCCCCOc1ccc(OCCCCNc2ccnc3ccccc23)cc1 [CZ, N-{4-[4-(Hexyloxy)phenoxy]butyl}quinolin-4-amine]											50.6	28.3	53.70	2.29 ± 0.20	1.00 ± 0.00	viability at 0.4 µM ([4]; 0.4 μM): 96.7%; viability at 0.4 µM ([5]; Homo sapiens, compound 0.4 μM alone, Wst1, vehicle = 100, read-out: No Chemo: percent cell survival): 96.7%; Doxorubicin 3.5 μM: percent cell survival ([5]; compound 0.4 μM + doxorubicin 3.5 μM): 89.1%; Oxaliplatin 100 μM: percent cell survival ([5]; compound 0.4 μM + oxaliplatin 100 μM): 91.1%; Paclitaxel 50 μM: percent cell survival ([5]; compound 0.4 μM + paclitaxel 50 μM): 101.9%; Vincristine 100 nM: percent cell survival ([5]; compound 0.4 μM + vincristine 100 nM): 90.3%
CCCCCCOc1ccccc1OCCNc1ccnc2ccccc12 [CP, N-{2-[2-(Hexyloxy)phenoxy]ethyl}quinolin-4-amine]	352 ± 114	−0.0	24.1 ± 1.3	24.1 ± 0.9	35.6	35.6	72.4	76.5	74.5	48.2	82.6	38	49.81	1.86 ± 0.34	0.86 ± 0.14	
CN(C(=O)c1c(O)c2ccccc2n(C)c1=O)c1ccccc1 [Linomide, reference compound]														2.29 ± 0.48	0.93 ± 0.19	
